For this experiment, the target named is T1, CpomOR3 (Cydia pomonella, UniProt H9A5M3).
T1 construct: gene OR3; full-length ORF cloned in pUASg-HA.attB, expressed in Drosophila melanogaster ab3A olfactory neurons (pOr22a-Gal4ki empty neuron line); with Odorant receptor coreceptor (Drosophila melanogaster, endogenous in the ab3A neuron)
T1 sequence (H9A5M3 1-426): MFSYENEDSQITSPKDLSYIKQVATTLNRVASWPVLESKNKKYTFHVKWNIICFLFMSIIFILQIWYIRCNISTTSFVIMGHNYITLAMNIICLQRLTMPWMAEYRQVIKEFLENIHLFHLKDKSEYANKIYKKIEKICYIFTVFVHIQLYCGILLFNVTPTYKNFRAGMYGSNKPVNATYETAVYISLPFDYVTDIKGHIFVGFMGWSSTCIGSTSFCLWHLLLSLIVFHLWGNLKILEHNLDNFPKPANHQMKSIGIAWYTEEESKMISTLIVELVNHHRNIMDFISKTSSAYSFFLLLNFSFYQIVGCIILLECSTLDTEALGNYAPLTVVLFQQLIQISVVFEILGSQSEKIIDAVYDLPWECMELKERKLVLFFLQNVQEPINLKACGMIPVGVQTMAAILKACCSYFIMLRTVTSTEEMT
T1 sequence (Q9VNB5 1-486 partner): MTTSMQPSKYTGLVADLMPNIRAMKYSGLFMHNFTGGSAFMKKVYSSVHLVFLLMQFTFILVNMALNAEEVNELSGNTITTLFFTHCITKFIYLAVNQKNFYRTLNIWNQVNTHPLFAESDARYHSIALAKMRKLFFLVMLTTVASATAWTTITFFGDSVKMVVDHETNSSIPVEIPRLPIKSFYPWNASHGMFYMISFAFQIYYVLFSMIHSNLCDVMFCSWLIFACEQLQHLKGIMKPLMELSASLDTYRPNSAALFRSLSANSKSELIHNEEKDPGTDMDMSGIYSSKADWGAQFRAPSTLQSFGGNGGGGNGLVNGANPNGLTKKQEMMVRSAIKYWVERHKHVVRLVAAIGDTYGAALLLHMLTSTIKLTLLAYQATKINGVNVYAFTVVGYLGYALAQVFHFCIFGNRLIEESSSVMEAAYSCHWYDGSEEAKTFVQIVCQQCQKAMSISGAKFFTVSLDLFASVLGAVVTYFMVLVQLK
Nature of the experiment: GC-coupled single sensillum recording (GC-SSR), ab3A neuron. Format: cell-based. The following applies: pear ester eluting from apple fruit headspace on GC, dose not stated, n = 3; activation; synthetic pear ester dose response (1, 10, 25 ng) not given. The source says:
GC-coupled single sensillum recording (GC-SSR), ab3A neuron on CpomOR3 | antennal sensilla expressing CpomOR3 began to respond at the retention time of pear ester

On to `CCCCC/C=C\C=C\C(=O)OCC` [pear ester, ethyl (E,Z)-2,4-decadienoate], for which the spike frequency response was 12.9 ± 4.1 spikes/s.
